“Also recorded” adds a separate entry of the source.
Assays:
CYP2C9 = target: T1, CYP2C9 (Homo sapiens, UniProt P11712); assay: CYP450 2C9 inhibition; format: in vitro ADME; details: recombinant CYP2C9 expressed in insect supersomes, probe 7-methoxy-4-(trifluoromethyl) coumarin, expressed enzyme, fluorescent substrate
T1 construct: purchased Fisher Scientific, Waltham, MA; host or cells: insect cells (supersomes)
Experimental: (§1) The compound (Id) was assessed for its ability to inhibit the three major human CYP450 enzymes, 3A4, 2D6 and 2C9. Assays were run in triplicate. Expressed enzymes in insect supersomes (Fisher Scientific, Waltham, MA) were used to minimize non-specific binding and membrane partitioning issues. The 3A4 assay uses testosterone as a substrate and analysis was performed by LC/MS/MS on a Waters Xevo TQ instrument as described above using positive electrospray ionization. Assay acceptance criteria was 20% for all standards and 25% for the LLOQ. The 2D6 and 2C9 assays use fluorescent substrates (3-[2-(N,N-diethylamino)ethyl]-7-methoxy-4-methylcoumarin for 2D6; 7-methoxy-4-(trifluoromethyl) coumarin for 2C9) and were analyzed on an Envision plate reader. GraphPad® Prism v 5.04 was used for nonlinear fitting of data to generate IC50 values.

HCT116 = assay: Annexin V apoptosis assay (flow cytometry), HCT116; format: cell-based, human; details: IC50 and 2×IC50, 48 h, vs basal conditions; dose dependent
Experimental: (§2) Apoptosis assay for colorectal carcinoma cell lines model was performed as follows. Cells were cultured in T25 culture flasks at a density of 3×10^5 cells for DLD-1, 4×10^5 cells for HCT116, and 5×10^5 cells for HT29 cells and treated with IC50 and 2×IC50 of compound (Id) for 48 h. The experiments were performed in triplicates. To measure apoptosis, an Annexin V APC staining assay (BD Biosciences, San Jose, CA, USA) was performed according to the manufacturer's recommendations, and 10,000 events were acquired using a FACSAria III flow cytometer (BD Biosciences, San Jose, CA, USA).

CYP3A4 = target: T2, CYP3A4 (Homo sapiens, UniProt P08684); assay: CYP450 3A4 inhibition; format: in vitro ADME; details: recombinant CYP3A4 expressed in insect supersomes, probe testosterone, expressed enzyme, testosterone substrate
T2 construct: purchased Fisher Scientific, Waltham, MA; host or cells: insect cells (supersomes)
Experimental: as §1

KG1α = assay: Annexin V/7AAD apoptosis assay, KG1α; format: cell-based, human; details: approximately 2×IC50, 48 h
Experimental: (§3) Apoptosis assay for leukemia cells was performed as follows. Cells were cultured in 6-well plates at a density of 3× 10^5 cells per well and treated with approximately 2×IC50 values of compound (Id) for 48 h. The experiments were performed in duplicates. To measure apoptosis, Annexin V APC and 7AAD staining (BD Biosciences, San Jose, CA, USA) was performed according to the manufacturer's recommendations, and 10,000 events were acquired using a FACSCanto flow cytometer (BD Biosciences, San Jose, CA, USA).

NB4 = assay: Annexin V/7AAD apoptosis assay, NB4; format: cell-based, human; details: approximately 2×IC50, 48 h
Experimental: as §3

DLD1 = assay: Annexin V apoptosis assay (flow cytometry), DLD1; format: cell-based, human; details: IC50 and 2×IC50, 48 h, vs basal conditions; dose dependent
Experimental: as §2

CYP2D6 = target: T3, CYP2D6 (Homo sapiens, UniProt P10635); assay: CYP450 2D6 inhibition; format: in vitro ADME; details: recombinant CYP2D6 expressed in insect supersomes, probe 3-[2-(N,N-diethylamino)ethyl]-7-methoxy-4-methylcoumarin, expressed enzyme, fluorescent substrate
T3 construct: purchased Fisher Scientific, Waltham, MA; host or cells: insect cells (supersomes)
Experimental: as §1

MV4-11 = assay: Annexin V/7AAD apoptosis assay, MV4-11; format: cell-based, human; details: approximately 2×IC50, 48 h
Experimental: as §3

HT29 = assay: Annexin V apoptosis assay (flow cytometry), HT29; format: cell-based, human; details: IC50 and 2×IC50, 48 h, vs basal conditions; dose dependent
Experimental: as §2

Kasumi-1 = assay: Annexin V/7AAD apoptosis assay, Kasumi-1; format: cell-based, human; details: approximately 2×IC50, 48 h
Experimental: as §3

K562 = assay: Annexin V/7AAD apoptosis assay, K562; format: cell-based, human; details: approximately 2×IC50, 48 h
Experimental: as §3

HL60 = assay: Annexin V/7AAD apoptosis assay, HL60; format: cell-based, human; details: approximately 2×IC50, 48 h
Experimental: as §3

HCT116 CRC cells = details: previous study (Khayat et al.); cited from earlier work
caspase-3 = details: concentration of 1 μM; previous study; cited from earlier work
[1] = system: NB4, HL60, and KG1a leukemia cell lines; details: previous study (Khayat et al.); range over three lines; cited from earlier work
[2] = system: CYP450 metabolizing enzymes (3A4, 2D6, and 2C9); details: previous study; cited from earlier work
cell cycle = details: concentration of 1 μM; previous study; cited from earlier work
MCF7 breast cancer = details: previous study (Khayat et al.); cited from earlier work
PC3 prostate cancer = details: previous study (Khayat et al.); cited from earlier work

T2 sequence (P08684 whole entry): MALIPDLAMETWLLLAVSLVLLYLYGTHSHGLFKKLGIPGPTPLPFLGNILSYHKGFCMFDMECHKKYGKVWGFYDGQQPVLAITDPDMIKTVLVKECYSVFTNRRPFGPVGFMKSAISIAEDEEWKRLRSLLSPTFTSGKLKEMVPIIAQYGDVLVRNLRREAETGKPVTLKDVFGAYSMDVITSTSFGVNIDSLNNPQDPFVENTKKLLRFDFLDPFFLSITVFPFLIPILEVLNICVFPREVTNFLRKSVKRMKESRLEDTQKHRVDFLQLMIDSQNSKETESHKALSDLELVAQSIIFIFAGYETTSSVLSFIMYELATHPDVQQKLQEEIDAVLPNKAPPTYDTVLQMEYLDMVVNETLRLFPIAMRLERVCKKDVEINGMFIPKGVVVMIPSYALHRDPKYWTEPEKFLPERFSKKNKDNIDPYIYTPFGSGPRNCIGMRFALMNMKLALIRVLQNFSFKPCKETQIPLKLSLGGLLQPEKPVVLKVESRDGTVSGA
T1 sequence (P11712 whole entry): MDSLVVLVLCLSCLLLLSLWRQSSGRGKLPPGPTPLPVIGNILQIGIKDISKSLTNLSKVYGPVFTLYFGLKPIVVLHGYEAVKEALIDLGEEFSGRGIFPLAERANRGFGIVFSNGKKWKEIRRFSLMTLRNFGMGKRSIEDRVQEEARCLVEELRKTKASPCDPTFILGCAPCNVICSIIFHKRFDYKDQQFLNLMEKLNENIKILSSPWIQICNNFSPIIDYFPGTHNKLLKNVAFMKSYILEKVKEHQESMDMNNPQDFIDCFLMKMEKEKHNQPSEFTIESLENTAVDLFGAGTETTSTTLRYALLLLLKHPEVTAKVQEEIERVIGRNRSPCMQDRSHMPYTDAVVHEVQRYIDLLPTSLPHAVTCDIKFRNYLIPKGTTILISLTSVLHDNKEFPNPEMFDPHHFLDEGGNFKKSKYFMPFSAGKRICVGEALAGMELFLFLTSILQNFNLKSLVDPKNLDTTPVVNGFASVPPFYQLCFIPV
T3 sequence (P10635 whole entry): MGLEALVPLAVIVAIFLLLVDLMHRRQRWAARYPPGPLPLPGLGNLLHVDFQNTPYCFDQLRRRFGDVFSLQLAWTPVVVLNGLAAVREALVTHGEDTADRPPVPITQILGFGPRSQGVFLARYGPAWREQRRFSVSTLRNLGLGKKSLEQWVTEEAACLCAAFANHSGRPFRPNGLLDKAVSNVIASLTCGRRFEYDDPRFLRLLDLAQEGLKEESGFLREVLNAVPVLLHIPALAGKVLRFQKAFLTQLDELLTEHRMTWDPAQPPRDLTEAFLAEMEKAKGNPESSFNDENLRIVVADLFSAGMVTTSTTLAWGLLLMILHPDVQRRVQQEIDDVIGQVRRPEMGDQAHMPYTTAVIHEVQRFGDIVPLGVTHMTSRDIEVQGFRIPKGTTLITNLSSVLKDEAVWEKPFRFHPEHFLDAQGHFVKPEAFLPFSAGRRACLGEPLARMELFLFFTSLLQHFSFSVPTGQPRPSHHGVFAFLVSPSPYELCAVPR

Row | Compound | IC50 (CYP2C9) [µM] | apoptosis in HCT116 cells (HCT116) | IC50 (CYP3A4) [µM] | apoptosis in KG1α cells (KG1α) | apoptosis in NB4 cells (NB4) | apoptosis in DLD1 cells (DLD1) | IC50 (CYP2D6) [µM] | apoptosis in MV4-11 cells (MV4-11) | apoptosis in HT29 cells (HT29) | apoptosis in Kasumi-1 cells (Kasumi-1) | apoptosis in K562 cells (K562) | apoptosis in HL60 cells (HL60) | IC50 (HCT116 CRC cells) [µM] | apoptosis (caspase-3) | IC50 [1] [µM] | substrate for major CYP450 metabolizing enzymes (3A4, 2D6, and 2C9) [2] | effect on cell cycle (cell cycle) | IC50 (MCF7 breast cancer) [µM] | IC50 (PC3 prostate cancer) [µM]
1 | CC1=N/C(=C\c2ccc(C)o2)C(=O)N1c1ccc(CC(=O)NCc2ccccc2)cc1 [Compound (Id), 2-Methyl-4-(5-methyl-2-furyl)methylene-1-[4-(benzylaminocarbonylmethyl)phenyl]-5-oxo-1H-imidazole] | > 10 | increased apoptosis | > 10 | strong apoptosis | strong apoptosis | increased apoptosis | > 10 | strong apoptosis | increased apoptosis | strong apoptosis; also recorded: very strong induction of apoptosis | strong apoptosis | strong apoptosis | – | – | – | – | – | – | –
2 | COc1ccc(/C=C2\N=C(C)N(c3ccc(CC(=O)NCc4ccccc4)cc3)C2=O)cc1 [KIM-161, reference compound] | – | – | – | – | – | – | – | – | – | – | – | – | 0.294 | promoted apoptosis through activation of caspase-3 | 0.275 to 0.893 | not a substrate | cell cycle arrest at pre-G and G2/M phases | 1.14 | 2.14

— patent US20250282764A1, “IMIDAZOLE HETEROCYCLE BASED COMPOUNDS AND METHODS OF TREATING CANCER” (King Abdulaziz University, priority 2024, published 2025)
